This note sets out measurements from patent US12576253B2, “Drug delivery device with intravesical tolerability” (priority 2009, dated 2026).

For the data set the following is noted: two six-day rabbits (4 mg device), spinal cord puncture at L7 just prior to euthanasia.

Molecules are shown by their SMILES.

For the compound `CCN(CC)CC(=O)Nc1c(C)cccc1C` [lidocaine], the “lidocaine in cerebrospinal fluid” value is reported as “not detected”.
